According to US6525001B1, “Substituted pyrimidine and pyridine herbicides” (Mid-American Commercialization Corporation, priority 1997, dated 2003):

What was measured:
Assay in all cases: Test B pre-/postemergence
Type in all cases: in vivo
Design in all cases: key: 0 is no effect; 10 is complete control
[1] = test system: crabgrass (Digitaria sanguinalis)
In short: (§1)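 Scored visually 0 (none) to 10 (complete control) against untreated plants after twelve to sixteen greenhouse days. Test chemicals, formulated in surfactant-containing non-phytotoxic solvent, applied to soil after planting and, separately, onto 1- to 4-leaf (2–18 cm) plants.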

[2] = test system: bedstraw (Galium aparine)
In short: as §1

[3] = test system: blackgrass (Alopecurus myosuroides)
In short: as §1

[4] = test system: velvetleaf (Abutilon theophrasti)
In short: as §1

[5] = test system: wheat (Triticum aestivum)
In short: as §1

rape (Brassica napus) = test system: rape (Brassica napus)
In short: as §1

[6] = test system: momingglory (Ipomoea hederacea)
In short: as §1

soybean (Glycine max) = test system: soybean (Glycine max)
In short: as §1

corn (Zea mays) = test system: corn (Zea mays)
In short: as §1

[7] = test system: cocklebur (Xanthium strumarium)
In short: as §1

[8] = test system: broadleaf signalgrass (Brachiaria decumbens)
In short: as §1

[9] = test system: pigweed (Amaranthus retroflexus)
In short: as §1

[10] = test system: giant foxtail (Setaria faberii)
In short: as §1

[11] = test system: sugar beet (Beta vulgaris)
In short: as §1

[12] = Preemergence, Rate 62 g/ha, scale of 0 to 10

Cc1cnc(-n2cnc(C(F)(F)F)c2)nc1C(=O)c1cccc(OC(F)(F)F)c1 [Compound 63]
Plant response rating, Crabgrass [1, 12]: 3 | Crabgrass plant response rating ([1]; Rate 62 g/ha, Postemergence): 3 | Crabgrass plant response rating ([1]; Rate 125 g/ha, Postemergence): 3 | Plant response rating, Crabgrass ([1]; Rate 125 g/ha, Preemergence): 6 | Plant response rating, Crabgrass ([1]; Rate 250 g/ha, Postemergence): 4 | Plant response rating, Crabgrass ([1]; Rate 250 g/ha, Preemergence): 8 | Plant response rating, Crabgrass ([1]; Rate 500 g/ha, Postemergence): 6 | Plant response rating, Crabgrass ([1]; Rate 500 g/ha, Preemergence): 9 | Plant response rating, Bedstraw [2, 12]: 2 | Bedstraw plant response rating ([2]; Rate 62 g/ha, Postemergence): 2 | Bedstraw plant response rating ([2]; Rate 125 g/ha, Postemergence): 2 | Plant response rating, Bedstraw ([2]; Rate 125 g/ha, Preemergence): 4 | Plant response rating, Bedstraw ([2]; Rate 250 g/ha, Postemergence): 5 | Plant response rating, Bedstraw ([2]; Rate 250 g/ha, Preemergence): 4 | Plant response rating, Bedstraw ([2]; Rate 500 g/ha, Postemergence): 8 | Plant response rating, Bedstraw ([2]; Rate 500 g/ha, Preemergence): 8 | Plant response rating, Blackgrass [3, 12]: 2 | Blackgrass plant response rating ([3]; Rate 62 g/ha, Postemergence): 2 | Blackgrass plant response rating ([3]; Rate 125 g/ha, Postemergence): 3 | Plant response rating, Blackgrass ([3]; Rate 125 g/ha, Preemergence): 3 | Plant response rating, Blackgrass ([3]; Rate 250 g/ha, Postemergence): 3 | Plant response rating, Blackgrass ([3]; Rate 250 g/ha, Preemergence): 8 | Plant response rating, Blackgrass ([3]; Rate 500 g/ha, Postemergence): 6 | Plant response rating, Blackgrass ([3]; Rate 500 g/ha, Preemergence): 9 | Plant response rating, Velvetleaf [4, 12]: 2 | Velvetleaf plant response rating ([4]; Rate 62 g/ha, Postemergence): 2 | Velvetleaf plant response rating ([4]; Rate 125 g/ha, Postemergence): 8 | Plant response rating, Velvetleaf ([4]; Rate 125 g/ha, Preemergence): 2 | Plant response rating, Velvetleaf ([4]; Rate 250 g/ha, Postemergence): 8 | Plant response rating, Velvetleaf ([4]; Rate 250 g/ha, Preemergence): 10 | Plant response rating, Velvetleaf ([4]; Rate 500 g/ha, Postemergence): 8 | Plant response rating, Velvetleaf ([4]; Rate 500 g/ha, Preemergence): 10 | Plant response rating, Wheat [5, 12]: 2 | Wheat plant response rating ([5]; Rate 62 g/ha, Postemergence): 2 | Wheat plant response rating ([5]; Rate 125 g/ha, Postemergence): 2 | Plant response rating, Wheat ([5]; Rate 125 g/ha, Preemergence): 2 | Plant response rating, Wheat ([5]; Rate 250 g/ha, Postemergence): 2 | Plant response rating, Wheat ([5]; Rate 250 g/ha, Preemergence): 3 | Plant response rating, Wheat ([5]; Rate 500 g/ha, Postemergence): 2 | Plant response rating, Wheat ([5]; Rate 500 g/ha, Preemergence): 4 | Plant response rating, Rape (rape (Brassica napus); [12]): 3 | Rape plant response rating (rape (Brassica napus); Rate 62 g/ha, Postemergence): 3 | Rape plant response rating (rape (Brassica napus); Rate 125 g/ha, Postemergence): 4 | Plant response rating, Rape (rape (Brassica napus); Rate 125 g/ha, Preemergence): 3 | Plant response rating, Rape (rape (Brassica napus); Rate 250 g/ha, Postemergence): 8 | Plant response rating, Rape (rape (Brassica napus); Rate 250 g/ha, Preemergence): 4 | Plant response rating, Rape (rape (Brassica napus); Rate 500 g/ha, Postemergence): 8 | Plant response rating, Rape (rape (Brassica napus); Rate 500 g/ha, Preemergence): 8 | Plant response rating, Morningglory [6, 12]: 2 | Morningglory plant response rating ([6]; Rate 62 g/ha, Postemergence): 2 | Morningglory plant response rating ([6]; Rate 125 g/ha, Postemergence): 4 | Plant response rating, Morningglory ([6]; Rate 125 g/ha, Preemergence): 7 | Plant response rating, Morningglory ([6]; Rate 250 g/ha, Postemergence): 10 | Plant response rating, Morningglory ([6]; Rate 250 g/ha, Preemergence): 10 | Plant response rating, Morningglory ([6]; Rate 500 g/ha, Postemergence): 10 | Plant response rating, Morningglory ([6]; Rate 500 g/ha, Preemergence): 10 | Plant response rating, Soybean (soybean (Glycine max); [12]): 0 | Soybean plant response rating (soybean (Glycine max); Rate 62 g/ha, Postemergence): 0 | Soybean plant response rating (soybean (Glycine max); Rate 125 g/ha, Postemergence): 2 | Plant response rating, Soybean (soybean (Glycine max); Rate 125 g/ha, Preemergence): 0 | Plant response rating, Soybean (soybean (Glycine max); Rate 250 g/ha, Postemergence): 2 | Plant response rating, Soybean (soybean (Glycine max); Rate 250 g/ha, Preemergence): 0 | Plant response rating, Soybean (soybean (Glycine max); Rate 500 g/ha, Postemergence): 2 | Plant response rating, Soybean (soybean (Glycine max); Rate 500 g/ha, Preemergence): 0 | Plant response rating, Corn (corn (Zea mays); [12]): 0 | Corn plant response rating (corn (Zea mays); Rate 62 g/ha, Postemergence): 0 | Corn plant response rating (corn (Zea mays); Rate 125 g/ha, Postemergence): 2 | Plant response rating, Corn (corn (Zea mays); Rate 125 g/ha, Preemergence): 1 | Plant response rating, Corn (corn (Zea mays); Rate 250 g/ha, Postemergence): 2 | Plant response rating, Corn (corn (Zea mays); Rate 250 g/ha, Preemergence): 1 | Plant response rating, Corn (corn (Zea mays); Rate 500 g/ha, Postemergence): 2 | Plant response rating, Corn (corn (Zea mays); Rate 500 g/ha, Preemergence): 2 | Plant response rating, Cocklebur [7, 12]: 1 | Cocklebur plant response rating ([7]; Rate 62 g/ha, Postemergence): 1 | Cocklebur plant response rating ([7]; Rate 125 g/ha, Postemergence): 3 | Plant response rating, Cocklebur ([7]; Rate 500 g/ha, Postemergence): 8 | Plant response rating, Cocklebur ([7]; Rate 500 g/ha, Preemergence): 1 | B. signalgrass plant response rating ([8]; Rate 62 g/ha, Postemergence): 4 | B. signalgrass plant response rating ([8]; Rate 62 g/ha, Preemergence): 4 | B. signalgrass plant response rating ([8]; Rate 125 g/ha, Postemergence): 3 | Plant response rating, B. signalgrass ([8]; Rate 125 g/ha, Preemergence): 7 | Plant response rating, B. signalgrass ([8]; Rate 250 g/ha, Postemergence): 4 | Plant response rating, B. signalgrass ([8]; Rate 250 g/ha, Preemergence): 8 | Plant response rating, B. signalgrass ([8]; Rate 500 g/ha, Postemergence): 5 | Plant response rating, B. signalgrass ([8]; Rate 500 g/ha, Preemergence): 9 | Plant response rating, Redroot pigweed [9, 12]: 8 | Redroot pigweed plant response rating ([9]; Rate 62 g/ha, Postemergence): 8 | Redroot pigweed plant response rating ([9]; Rate 125 g/ha, Postemergence): 9 | Plant response rating, Redroot pigweed ([9]; Rate 125 g/ha, Preemergence): 9 | Plant response rating, Redroot pigweed ([9]; Rate 250 g/ha, Postemergence): 9 | Plant response rating, Redroot pigweed ([9]; Rate 250 g/ha, Preemergence): 10 | Plant response rating, Redroot pigweed ([9]; Rate 500 g/ha, Postemergence): 9 | Plant response rating, Redroot pigweed ([9]; Rate 500 g/ha, Preemergence): 10 | Plant response rating, Giant foxtail [10, 12]: 2 | Giant foxtail plant response rating ([10]; Rate 62 g/ha, Postemergence): 2 | Giant foxtail plant response rating ([10]; Rate 125 g/ha, Postemergence): 2 | Plant response rating, Giant foxtail ([10]; Rate 125 g/ha, Preemergence): 3 | Plant response rating, Giant foxtail ([10]; Rate 250 g/ha, Postemergence): 3 | Plant response rating, Giant foxtail ([10]; Rate 250 g/ha, Preemergence): 6 | Plant response rating, Giant foxtail ([10]; Rate 500 g/ha, Postemergence): 3 | Plant response rating, Giant foxtail ([10]; Rate 500 g/ha, Preemergence): 8 | Plant response rating, Sugarbeets [11, 12]: 10 | Sugarbeets plant response rating ([11]; Rate 62 g/ha, Postemergence): 10 | Sugarbeets plant response rating ([11]; Rate 125 g/ha, Postemergence): 9 | Plant response rating, Sugarbeets ([11]; Rate 125 g/ha, Preemergence): 10 | Plant response rating, Sugarbeets ([11]; Rate 250 g/ha, Postemergence): 9 | Plant response rating, Sugarbeets ([11]; Rate 250 g/ha, Preemergence): 10 | Plant response rating, Sugarbeets ([11]; Rate 500 g/ha, Postemergence): 9 | Plant response rating, Sugarbeets ([11]; Rate 500 g/ha, Preemergence): 10
